Results: ChEMBL document CHEMBL1144607, “Novel hydroxamic acid-related phosphinates: inhibition of neutral aminopeptidase N (APN)” (Bioorg Med Chem Lett, 2007)
The source made the active and inactive calls. The rule behind the calls is not given here.

How the values were obtained:
Aminopeptidase N [1] = biological target: T1, Aminopeptidase N (Homo sapiens, UniProt P15144); experiment: Inhibition of APN at <300 uM
Aminopeptidase N [2] = biological target: T1, Aminopeptidase N; experiment: Inhibition of APN

T1 sequence (P15144 whole entry): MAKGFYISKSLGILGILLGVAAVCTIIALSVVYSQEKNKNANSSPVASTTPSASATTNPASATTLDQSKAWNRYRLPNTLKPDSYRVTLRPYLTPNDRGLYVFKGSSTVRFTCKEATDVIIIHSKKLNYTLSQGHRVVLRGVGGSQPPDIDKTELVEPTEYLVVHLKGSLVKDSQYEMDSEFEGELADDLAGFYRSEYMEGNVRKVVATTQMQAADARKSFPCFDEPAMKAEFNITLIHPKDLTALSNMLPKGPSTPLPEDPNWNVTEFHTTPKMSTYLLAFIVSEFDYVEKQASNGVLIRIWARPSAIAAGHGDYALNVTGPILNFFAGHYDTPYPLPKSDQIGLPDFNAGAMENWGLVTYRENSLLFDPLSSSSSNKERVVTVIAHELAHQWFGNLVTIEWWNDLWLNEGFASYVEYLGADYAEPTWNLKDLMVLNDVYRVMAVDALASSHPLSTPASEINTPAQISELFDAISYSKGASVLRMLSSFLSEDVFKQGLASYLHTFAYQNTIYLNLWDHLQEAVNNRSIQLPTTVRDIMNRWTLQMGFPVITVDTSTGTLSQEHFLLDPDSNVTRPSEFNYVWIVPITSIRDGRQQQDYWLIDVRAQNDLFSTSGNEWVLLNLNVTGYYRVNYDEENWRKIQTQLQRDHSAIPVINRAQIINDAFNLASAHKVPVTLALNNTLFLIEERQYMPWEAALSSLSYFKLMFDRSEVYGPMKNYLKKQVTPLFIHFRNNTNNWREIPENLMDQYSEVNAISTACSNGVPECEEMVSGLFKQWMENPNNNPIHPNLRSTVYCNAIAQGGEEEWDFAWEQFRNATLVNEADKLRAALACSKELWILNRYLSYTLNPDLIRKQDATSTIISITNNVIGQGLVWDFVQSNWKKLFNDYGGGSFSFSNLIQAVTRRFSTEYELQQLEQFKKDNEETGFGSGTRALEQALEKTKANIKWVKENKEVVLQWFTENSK

CCCCCNC(=O)P(=O)(O)C(N)Cc1ccccc1 (centres undefined)
Activity (Aminopeptidase N [1]): inactive

CCNC(=O)P(=O)(O)C(N)C(C)C (centres undefined)
Activity (Aminopeptidase N [1]): inactive

CC(C)C(N)P(=O)(O)C(=O)Nc1ccccc1 (centres undefined)
IC50 (Aminopeptidase N [2]): 160 µM

CC(C)CC(N)P(=O)(O)C(C)N (centres undefined)
IC50 (Aminopeptidase N [2]): 155 µM
